Key:
Assay in all cases: DSF Tm panel
Type in all cases: binding
Conditions in all cases: 10 μM compound
PCTK1A = target: T1, PCTK1A (Homo sapiens, UniProt Q00536)
T1 construct: purchased in-house DSF kinase panel (SGC-style construct names; the trailing letter is the construct ID)

DMPK1A = target: T2, DMPK1A (Homo sapiens, UniProt Q09013)
T2 construct: purchased in-house DSF kinase panel (SGC-style construct names; the trailing letter is the construct ID)
T2 sequence (Q09013 1-629): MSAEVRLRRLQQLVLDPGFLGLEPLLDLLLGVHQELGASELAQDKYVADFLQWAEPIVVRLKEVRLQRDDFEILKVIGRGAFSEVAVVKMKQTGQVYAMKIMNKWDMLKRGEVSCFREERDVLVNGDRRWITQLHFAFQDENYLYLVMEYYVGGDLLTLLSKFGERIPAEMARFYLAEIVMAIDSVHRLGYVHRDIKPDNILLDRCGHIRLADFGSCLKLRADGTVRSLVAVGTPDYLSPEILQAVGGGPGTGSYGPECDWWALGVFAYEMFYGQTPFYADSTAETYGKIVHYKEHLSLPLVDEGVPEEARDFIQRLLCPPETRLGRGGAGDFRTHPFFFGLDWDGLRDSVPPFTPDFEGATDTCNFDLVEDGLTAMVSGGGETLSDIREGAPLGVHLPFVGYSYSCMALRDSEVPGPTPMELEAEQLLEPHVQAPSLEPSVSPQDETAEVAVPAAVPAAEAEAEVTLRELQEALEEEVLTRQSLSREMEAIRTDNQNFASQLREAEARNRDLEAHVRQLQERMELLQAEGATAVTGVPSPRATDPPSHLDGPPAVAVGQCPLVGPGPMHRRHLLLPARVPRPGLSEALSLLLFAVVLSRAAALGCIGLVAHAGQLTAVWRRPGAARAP

STK3 (STK3A) = target: T3, STK3 (STK3A) (Homo sapiens, UniProt Q13188)
T3 construct: purchased in-house DSF kinase panel (SGC-style construct names; the trailing letter is the construct ID)
T3 sequence (Q13188 16-313): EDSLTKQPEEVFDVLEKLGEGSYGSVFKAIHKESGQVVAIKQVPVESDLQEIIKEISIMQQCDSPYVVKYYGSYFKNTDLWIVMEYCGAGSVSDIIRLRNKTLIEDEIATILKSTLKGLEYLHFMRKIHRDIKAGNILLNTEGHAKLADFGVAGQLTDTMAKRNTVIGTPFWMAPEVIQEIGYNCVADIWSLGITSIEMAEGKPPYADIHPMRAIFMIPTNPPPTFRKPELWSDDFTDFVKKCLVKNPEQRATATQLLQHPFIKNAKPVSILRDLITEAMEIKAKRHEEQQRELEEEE

MAPK10A = target: T4, MAPK10A (Homo sapiens, UniProt P53779)
T4 construct: purchased in-house DSF kinase panel (SGC-style construct names; the trailing letter is the construct ID)

PAK4A = target: T5, PAK4A (Homo sapiens, UniProt O96013)
T5 construct: purchased in-house DSF kinase panel (SGC-style construct names; the trailing letter is the construct ID)
Experimental: (§1) The synthesized urea-based derivatives were evaluated in a panel of kinases by differential scanning fluorescence (DSF) to investigate their selectivity profile. A positive ΔT m in the DSF assay indicates stabilization of the protein upon ligand binding in comparison to its apo state, with higher thermal shifts generally correlating with stronger binding. For this purpose, we used our internal kinase selectivity panel (∼90 kinases) along with staurosporine as a positive control. […] This was also reflected in the overall low selectivity score (S) throughout the series, which is determined by the ratio between the number of kinases that are stabilized above 5 °C and the total number of kinases tested (Figure ). Motivated by these findings, we further validated the entire series by orthogonal binding and activity assays to determine the in vitro and cellular potency and selectivity of the developed series in comparison to the selected reference compounds. […]
(§2) was performed as previously described.[1,2] Briefly, recombinant protein kinase domains at a concentration of 2 μM were mixed with 10 μM compound in a buffer containing 20 mM HEPES, […]
(§3) probe (1 µl per mL). Subsequently, temperature-dependent protein unfolding profiles were […]
(§4) emission filters were set to 465 nm and 590 nm, respectively. The temperature was raised with a step rate of 3 °C per minute. […]
(§5) inflection point of the transition curve. […]
(§6) previously.[3] In brief, STK10, STK3, STK4 and SLK were obtained as plasmids cloned in […]
(§7) Plasmids were transfected into
(§8) KD concentration taken from TracerDB (tracerdb.org)[4] were pipetted into white 384-well

TAF1A = system: TAF1A
Experimental: as §1, §2, §3, §4, §5, §6, §7, §8

CHEK2A = target: T6, CHEK2A (Homo sapiens, UniProt O96017)
T6 construct: purchased in-house DSF kinase panel (SGC-style construct names; the trailing letter is the construct ID)
Experimental: as §1, §2, §3, §4, §5, §6, §7, §8

K2A2 (CSNK2A2A) = target: T7, K2A2 (CSNK2A2A) (Homo sapiens, UniProt P19784)
T7 construct: purchased in-house DSF kinase panel (SGC-style construct names; the trailing letter is the construct ID)
Experimental: as §1, §2, §3, §4, §5, §6, §7, §8

PLK4A = target: T8, PLK4A (Homo sapiens, UniProt O00444)
T8 construct: purchased in-house DSF kinase panel (SGC-style construct names; the trailing letter is the construct ID)
T8 sequence (O00444 2-275): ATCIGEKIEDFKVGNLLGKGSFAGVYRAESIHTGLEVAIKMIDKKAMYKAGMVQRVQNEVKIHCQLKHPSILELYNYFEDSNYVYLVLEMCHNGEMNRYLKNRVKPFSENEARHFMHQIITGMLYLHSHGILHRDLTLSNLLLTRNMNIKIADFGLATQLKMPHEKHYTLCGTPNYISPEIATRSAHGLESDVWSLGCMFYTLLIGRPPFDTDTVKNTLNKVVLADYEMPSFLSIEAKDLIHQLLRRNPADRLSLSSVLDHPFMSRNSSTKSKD
Experimental: as §1, §2, §3, §4, §5, §6, §7, §8

CAMK1DA = target: T9, CAMK1DA (Homo sapiens, UniProt Q8IU85)
T9 construct: purchased in-house DSF kinase panel (SGC-style construct names; the trailing letter is the construct ID)
Experimental: as §1, §2, §3, §4, §5, §6, §7, §8

EPHA5A = target: T10, EPHA5A (Homo sapiens, UniProt P54756)
T10 construct: purchased in-house DSF kinase panel (SGC-style construct names; the trailing letter is the construct ID)
T10 sequence (P54756 653-939): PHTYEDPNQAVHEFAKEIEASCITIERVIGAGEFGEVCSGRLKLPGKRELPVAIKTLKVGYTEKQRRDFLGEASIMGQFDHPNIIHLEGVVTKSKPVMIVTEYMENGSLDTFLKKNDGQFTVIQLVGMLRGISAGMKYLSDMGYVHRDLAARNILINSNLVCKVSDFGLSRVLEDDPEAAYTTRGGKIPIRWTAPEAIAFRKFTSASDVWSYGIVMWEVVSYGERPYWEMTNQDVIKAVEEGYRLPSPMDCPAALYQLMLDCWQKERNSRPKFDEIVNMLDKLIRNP
Experimental: as §1, §2, §3, §4, §5, §6, §7, §8

CLK3A = target: T11, CLK3A (Homo sapiens, UniProt P49761)
T11 construct: purchased in-house DSF kinase panel (SGC-style construct names; the trailing letter is the construct ID)
Experimental: as §1, §2, §3, §4, §5, §6, §7, §8

PIM1 (PIM1A) = target: T12, PIM1 (PIM1A) (Homo sapiens, UniProt P11309)
T12 construct: purchased in-house DSF kinase panel (SGC-style construct names; the trailing letter is the construct ID)
T12 sequence (P11309 whole entry): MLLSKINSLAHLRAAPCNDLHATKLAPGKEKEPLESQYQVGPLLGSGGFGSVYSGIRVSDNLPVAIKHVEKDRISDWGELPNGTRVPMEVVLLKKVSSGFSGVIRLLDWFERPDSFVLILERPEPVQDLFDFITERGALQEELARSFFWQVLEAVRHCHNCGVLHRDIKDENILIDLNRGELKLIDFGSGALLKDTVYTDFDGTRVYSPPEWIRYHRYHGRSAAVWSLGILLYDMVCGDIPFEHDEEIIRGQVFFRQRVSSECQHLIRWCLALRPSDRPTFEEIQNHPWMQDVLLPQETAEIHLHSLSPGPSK

T5 sequence (O96013 291-591): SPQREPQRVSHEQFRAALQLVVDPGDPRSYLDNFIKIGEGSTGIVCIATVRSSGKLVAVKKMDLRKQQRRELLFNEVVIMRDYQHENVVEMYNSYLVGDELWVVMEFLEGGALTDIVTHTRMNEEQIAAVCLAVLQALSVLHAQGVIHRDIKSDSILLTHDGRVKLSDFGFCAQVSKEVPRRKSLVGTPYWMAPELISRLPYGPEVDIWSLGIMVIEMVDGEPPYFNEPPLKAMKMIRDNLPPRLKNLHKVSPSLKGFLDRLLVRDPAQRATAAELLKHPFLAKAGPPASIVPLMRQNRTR
T9 sequence (Q8IU85 whole entry): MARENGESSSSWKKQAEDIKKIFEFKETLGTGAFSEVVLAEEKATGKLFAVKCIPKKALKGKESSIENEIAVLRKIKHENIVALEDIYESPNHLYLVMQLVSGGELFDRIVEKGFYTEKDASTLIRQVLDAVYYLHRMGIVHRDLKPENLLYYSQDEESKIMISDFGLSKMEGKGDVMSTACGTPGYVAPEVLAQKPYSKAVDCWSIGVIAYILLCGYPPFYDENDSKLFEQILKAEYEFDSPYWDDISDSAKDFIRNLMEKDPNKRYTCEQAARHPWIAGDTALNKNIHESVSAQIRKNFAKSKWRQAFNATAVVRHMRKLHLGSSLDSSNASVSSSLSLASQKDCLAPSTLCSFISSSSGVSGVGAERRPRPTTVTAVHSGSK
T4 sequence (P53779 39-402): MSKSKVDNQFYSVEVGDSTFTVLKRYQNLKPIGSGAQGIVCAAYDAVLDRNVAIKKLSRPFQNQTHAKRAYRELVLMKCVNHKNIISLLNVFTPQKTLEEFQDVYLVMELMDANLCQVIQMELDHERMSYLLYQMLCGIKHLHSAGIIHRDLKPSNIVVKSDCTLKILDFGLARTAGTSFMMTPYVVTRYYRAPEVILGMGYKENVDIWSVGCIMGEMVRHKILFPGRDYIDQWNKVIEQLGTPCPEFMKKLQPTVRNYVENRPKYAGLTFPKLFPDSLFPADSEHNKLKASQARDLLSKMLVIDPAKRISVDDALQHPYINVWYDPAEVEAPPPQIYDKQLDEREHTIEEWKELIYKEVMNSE
T7 sequence (P19784 whole entry): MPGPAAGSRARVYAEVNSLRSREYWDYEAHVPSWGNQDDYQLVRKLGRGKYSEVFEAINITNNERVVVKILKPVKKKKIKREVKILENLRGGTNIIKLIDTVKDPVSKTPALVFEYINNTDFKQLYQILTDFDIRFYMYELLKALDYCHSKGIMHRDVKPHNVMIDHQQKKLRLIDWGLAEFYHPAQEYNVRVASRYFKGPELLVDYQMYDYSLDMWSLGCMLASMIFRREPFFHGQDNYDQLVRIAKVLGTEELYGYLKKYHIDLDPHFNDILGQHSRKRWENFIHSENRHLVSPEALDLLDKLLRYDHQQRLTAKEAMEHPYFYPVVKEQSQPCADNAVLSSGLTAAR
T11 sequence (P49761 127-484): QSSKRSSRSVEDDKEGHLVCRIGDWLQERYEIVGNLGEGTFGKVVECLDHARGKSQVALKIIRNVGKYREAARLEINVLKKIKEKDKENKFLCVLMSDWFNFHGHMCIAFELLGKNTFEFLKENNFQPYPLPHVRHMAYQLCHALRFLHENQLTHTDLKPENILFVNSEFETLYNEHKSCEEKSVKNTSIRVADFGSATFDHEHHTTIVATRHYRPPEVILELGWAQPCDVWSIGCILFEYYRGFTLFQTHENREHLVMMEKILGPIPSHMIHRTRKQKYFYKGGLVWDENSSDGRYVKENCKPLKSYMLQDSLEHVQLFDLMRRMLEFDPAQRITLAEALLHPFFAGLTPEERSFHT
T1 sequence (Q00536 163-478): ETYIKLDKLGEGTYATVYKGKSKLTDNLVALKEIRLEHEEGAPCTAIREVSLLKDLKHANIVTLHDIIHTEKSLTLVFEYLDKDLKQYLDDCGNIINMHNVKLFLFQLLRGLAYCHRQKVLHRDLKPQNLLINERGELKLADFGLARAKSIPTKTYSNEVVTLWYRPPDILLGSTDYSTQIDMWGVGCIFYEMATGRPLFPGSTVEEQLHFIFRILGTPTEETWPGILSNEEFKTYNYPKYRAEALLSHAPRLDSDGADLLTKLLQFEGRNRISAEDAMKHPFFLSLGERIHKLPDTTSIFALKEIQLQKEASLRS
T6 sequence (O96017 210-531): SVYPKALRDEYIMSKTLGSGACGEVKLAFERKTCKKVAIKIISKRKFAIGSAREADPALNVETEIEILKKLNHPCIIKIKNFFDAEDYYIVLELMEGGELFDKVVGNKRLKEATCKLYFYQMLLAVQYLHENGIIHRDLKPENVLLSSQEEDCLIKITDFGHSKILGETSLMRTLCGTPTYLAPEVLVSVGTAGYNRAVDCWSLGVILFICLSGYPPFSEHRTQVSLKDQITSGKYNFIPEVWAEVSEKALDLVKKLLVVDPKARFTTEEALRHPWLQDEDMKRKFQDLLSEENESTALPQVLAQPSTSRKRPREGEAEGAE

| SMILES | ΔTm at 10 µM (PCTK1A) | ΔTm at 10 µM (DMPK1A) | ΔTm at 10 µM (STK3 (STK3A)) | ΔTm at 10 µM (MAPK10A) | ΔTm at 10 µM (PAK4A) | ΔTm TAF1A (TAF1A) | ΔTm at 10 µM (CHEK2A) | ΔTm at 10 µM (K2A2 (CSNK2A2A)) | ΔTm at 10 µM (PLK4A) | ΔTm at 10 µM (CAMK1DA) | ΔTm at 10 µM (EPHA5A) | ΔTm at 10 µM (CLK3A) | ΔTm at 10 µM (PIM1 (PIM1A)) |
| --- | --- | --- | --- | --- | --- | --- | --- | --- | --- | --- | --- | --- | --- |
| O=C(NCc1ccccc1)Nc1ccc2cc1OCCOCCNc1ccn3ncc-2c3n1 [compound 16] | 1.8 °C | 0.3 °C | 5.9 °C | -0.3 °C | -0.2 °C | 0,4 °C | 6.5 °C | 2.3 °C | 4.1 °C | 0 °C | 0.1 °C | 0.3 °C | 1.2 °C |
| O=C(NCc1ccccc1Cl)Nc1ccc2cc1OCCOCCNc1ccn3ncc-2c3n1 [compound 17] | 2.5 °C | -0.1 °C | 6.2 °C | 0.2 °C | 0 °C | 0,5 °C | 5.3 °C | 4 °C | 3.9 °C | -0.3 °C | 0.1 °C | 0.1 °C | 1.5 °C |
| O=C(NCc1cccc(Cl)c1)Nc1ccc2cc1OCCOCCNc1ccn3ncc-2c3n1 [compound 18] | 1.3 °C | 0.1 °C | 8 °C | 0.6 °C | 0.1 °C | 0,5 °C | 3.6 °C | 3.1 °C | 3.2 °C | 0.4 °C | 0.4 °C | 0.3 °C | 3.2 °C |
| O=C(NCc1ccc(Cl)cc1)Nc1ccc2cc1OCCOCCNc1ccn3ncc-2c3n1 [compound 19] | 1.3 °C | 0.3 °C | 6.7 °C | 0.8 °C | 0.1 °C | -0,4 °C | 4.5 °C | 3.6 °C | 2.5 °C | 0.6 °C | 0.3 °C | 0.4 °C | 1.8 °C |
| O=C(NCc1ccc(Cl)cc1Cl)Nc1ccc2cc1OCCOCCNc1ccn3ncc-2c3n1 [compound 20] | 1.1 °C | 0.7 °C | 8 °C | 1.6 °C | 0.8 °C | 0,6 °C | 3.6 °C | 3 °C | 2.8 °C | 1 °C | 0.7 °C | 0.3 °C | 3 °C |
| O=C(NCc1ccc(Cl)cc1F)Nc1ccc2cc1OCCOCCNc1ccn3ncc-2c3n1 [compound 21] | 1.1 °C | 0.2 °C | 6.9 °C | 1.4 °C | 0.9 °C | 0,4 °C | 5 °C | 4.2 °C | 2.6 °C | 0.8 °C | 0.7 °C | 0.6 °C | 2.8 °C |
| Cc1cc(Cl)ccc1CNC(=O)Nc1ccc2cc1OCCOCCNc1ccn3ncc-2c3n1 [compound 23] | 2.8 °C | 0.5 °C | 9.1 °C | 1 °C | 1.2 °C | 0,6 °C | 5.7 °C | 2.8 °C | 2.8 °C | 2.1 °C | 1 °C | 0.4 °C | 2.3 °C |
| Cc1cc(Br)ccc1CNC(=O)Nc1ccc2cc1OCCOCCNc1ccn3ncc-2c3n1 [compound 24] | 0.7 °C | 0.3 °C | 3.8 °C | 0.5 °C | 1.9 °C | 0,1 °C | 8.6 °C | 0.5 °C | 2.3 °C | 1.3 °C | 1.4 °C | 0.2 °C | 0.5 °C |

From PMC12621043, “Un-LOK-ing a New Approach for Conformational Selective Targeting of STK10 (LOK)” (ACS Medicinal Chemistry Letters, 2025)
